Data on 11 molecules can be found in patent US9527885B2, “Hepatitis C virus inhibitors” (BRISTOL-MYERS SQUIBB COMPANY, priority 2011, dated 2016).

The subject of experiment [1] is HCV genotype 1b (Con1) replicon in HUH-7 cells. In words: HCV replicon luciferase reporter assay, genotype 1b. It counts as cell-based. The note with it: Hepatitis C virus, 72 h, 3 days incubation, read-out: LE_1b (EC50, range). In short, it runs like this: (§1)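 Twenty-point, threefold compound titrations (0.5% DMSO) were incubated 3 days at 37 °C with 3.0×10^3 HUH-7 cells/well in 4% FCS. The cells stably carried luciferase replicons: genotype 1b Con1 (S1179I) or 1a H77 (NS3 P1496L, NS5A S2204I). Renilla signal was read after 2 h with 7.5 μM EnduRen, and EC50 was taken from a four-parameter logistic fit. Cytotoxicity (CC50) was measured by Cell Titer-Blue, 8 h.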
In general terms: A replicon is a self-replicating genome or part of one, used to study replication in cells.

Experiment [2] relates to HCV genotype 1a (H77 strain) replicon in HUH-7 cells. The experiment can be described thus: HCV replicon luciferase reporter assay, genotype 1a. It counts as cell-based. Conditions: Hepatitis C virus, Huh-7, 72 h, 3 days incubation, read-out: LE_1a (EC50, range). The method, boiled down:
as §1

[3] abbreviates: HCV genotype 1b replicon luciferase, range class.
The mark [4] stands for this setting: HCV genotype 1a replicon luciferase, range class.
Setting [5] is: HCV genotype 1b replicon luciferase, class symbols.
Where [6] appears, read: HCV genotype 1a replicon luciferase, class symbols.
Where [7] appears, read: HCV genotype 1b replicon luciferase reporter, range class.
Setting [8] is: HCV genotype 1a replicon luciferase reporter, range class.

Where two headings read alike, the source gives them in different places.

For the molecule `C[C@@H]1CC/C=C\[C@@H]2C[C@@]2(C(=O)NS(=O)(=O)C2(CF)CC2)NC(=O)[C@@H]2C[C@@H](Oc3nc4c(c5ccccc35)OCCC4)CN2C(=O)[C@@H](NC(=O)OC(C)(C)C(C)(F)F)[C@H](C)C1` [Compound 6032, 3,3-difluoro-2-methylbutan-2-yl ((2R,6S,7R,9R,13aS,14aR,16aS,Z)-2-((3,4-dihydro-2H-pyrano[3,2-c]isoquinolin-6-yl)oxy)-14a-(((1-(fluoromethyl)cyclopropyl)sulfonyl)carbamoyl)-7,9-dimethyl-5,16-dioxo-1,2,3,5,6,7,8,9,10,11,13a,14,14a,15,16,16a-hexadecahydrocyclopropa[e]pyrrolo[1,2-a][1,4]diazacyclopentadecin-6-yl)carbamate], the EC50 in experiment [1] (setting [3]) and in experiment [2] (setting [4]) was < 5.46 nM in each case.
Turning to `C[C@@H]1CC/C=C\[C@@H]2C[C@@]2(C(=O)NS(=O)(=O)C2CC2)NC(=O)[C@@H]2C[C@@H](Oc3nccc4ccc(F)cc34)CN2C(=O)[C@@H](NC(=O)OC(C)(C)C(F)(F)F)[C@H](C)C1` [Compound 4072, 1,1,1-trifluoro-2-methylpropan-2-yl (2R,6S,7R,9R,13aS,14aR,16aS,Z)-14a-(cyclopropylsulfonylcarbamoyl)-2-(7-fluoroisoquinolin-1-yloxy)-7,9-dimethyl-5,16-dioxo-1,2,3,5,6,7,8,9,10,11,13a,14,14a,15,16,16a-hexadecahydrocyclopropa[e]pyrrolo[1,2-a][1,4]diazacyclopentadecin-6-ylcarbamate], the EC50 in experiment [1] (setting [5]) and in experiment [2] (setting [6]) was < 5.46 nM each time.
Regarding `CC[C@@H]1C[C@H](C)CC/C=C\[C@@H]2C[C@@]2(C(=O)NS(=O)(=O)C2(C)CC2)NC(=O)[C@@H]2C[C@@H](Oc3nccc4cc(OC)ccc34)CN2C(=O)[C@H]1NC(=O)OC(C)(C)C` [Compound 4203, tert-butyl (2R,6S,7R,9R,13aS,14aR,16aS,Z)-7-ethyl-2-(6-methoxyisoquinolin-1-yloxy)-9-methyl-14a-(1-methylcyclopropylsulfonylcarbamoyl)-5,16-dioxo-1,2,3,5,6,7,8,9,10,11,13a,14,14a,15,16,16a-hexadecahydrocyclopropa[e]pyrrolo[1,2-a][1,4]diazacyclopentadecin-6-ylcarbamate], the EC50 in experiment [1] (setting [5]) and in experiment [2] (setting [6]) was < 5.46 nM in each case.
As to `COc1ccc2c(O[C@@H]3C[C@H]4C(=O)N[C@]5(C(=O)NS(=O)(=O)C6CC6)C[C@H]5/C=C\CC[C@@H](C)C[C@@H](C)[C@H](NC(=O)O[C@@H]5C[C@@H]6C[C@@H]6C5)C(=O)N4C3)nc(-c3ccc(OC(C)C)nc3)cc2c1` [Compound 5219, (1R,3r,5S)-bicyclo[3.1.0]hexan-3-yl ((2R,6S,7R,9R,13aS,14aR,16aS,Z)-14a-((cyclopropylsulfonyl)carbamoyl)-2-((3-(6-isopropoxypyridin-3-yl)-6-methoxyisoquinolin-1-yl)oxy)-7,9-dimethyl-5,16-dioxo-1,2,3,5,6,7,8,9,10,11,13a,14,14a,15,16,16a-hexadecahydrocyclopropa[e]pyrrolo[1,2-a][1,4]diazacyclopentadecin-6-yl)carbamate], the EC50 in experiment [1] (setting [3]) and in experiment [2] (setting [4]) was < 5.46 nM in each case.
For `C[C@@H]1CCC[C@H](O)[C@@H]2C[C@@]2(C(=O)NS(=O)(=O)C2(C)CC2)NC(=O)[C@@H]2C[C@@H](Oc3ncc(OC4CC4)c4ccccc34)CN2C(=O)[C@@H](NC(=O)OC(C)(C)C(F)(F)F)[C@H](C)C1` [Compound 2002, 1,1,1-trifluoro-2-methylpropan-2-yl ((2R,6S,7R,9R,13S,13aR,14aR,16aS)-2-((4-cyclopropoxyisoquinolin-1-yl)oxy)-13-hydroxy-7,9-dimethyl-14a-(((1-methylcyclopropyl)sulfonyl)carbamoyl)-5,16-dioxooctadecahydrocyclopropa[e]pyrrolo[1,2-a][1,4]diazacyclopentadecin-6-yl)carbamate], the EC50 in experiment [1] (setting [7]) and in experiment [2] (setting [8]) was 4.82 to 103 nM in each case.
Turning to `COc1ccc2c(O[C@@H]3C[C@H]4C(=O)N[C@]5(C(=O)NS(=O)(=O)C6CC6)C[C@H]5/C=C\CC[C@@H](C)C[C@@H](C)[C@H](NC(=O)O[C@@H]5C[C@@H]6C[C@@H]6C5)C(=O)N4C3)nc(-c3ccc(OC(C)C)cn3)cc2c1` [Compound 5209, (1R,3r,5S)-bicyclo[3.1.0]hexan-3-yl ((2R,6S,7R,9R,13aS,14aR,16aS,Z)-14a-((cyclopropylsulfonyl)carbamoyl)-2-((3-(5-isopropoxypyridin-2-yl)-6-methoxyisoquinolin-1-yl)oxy)-7,9-dimethyl-5,16-dioxo-1,2,3,5,6,7,8,9,10,11,13a,14,14a,15,16,16a-hexadecahydrocyclopropa[e]pyrrolo[1,2-a][1,4]diazacyclopentadecin-6-yl)carbamate], the EC50 in experiment [1] (setting [3]) and in experiment [2] (setting [4]) was < 5.46 nM each time.
For the molecule `COCCOc1cc2c(Cl)cccc2c(O[C@@H]2C[C@H]3C(=O)N[C@]4(C(=O)NS(=O)(=O)C5(C)CC5)C[C@H]4/C=C\CC[C@@H](C)C[C@@H](C)[C@H](NC(=O)OC(C)(C)C(F)(F)F)C(=O)N3C2)n1` [Compound 1114, 1,1,1-trifluoro-2-methylpropan-2-yl ((2R,6S,7R,9R,13aS,14aR,16aS,Z)-2-((5-chloro-3-(2-methoxyethoxyl)isoquinolin-1-yl)oxy)-7,9-dimethyl-14a-(((1-methylcyclopropyl)sulfonyl)carbamoyl)-5,16-dioxo-1,2,3,5,6,7,8,9,10,11,13a,14,14a,15,16,16a-hexadecahydrocyclopropa[e]pyrrolo[1,2-a][1,4]diazacyclopentadecin-6-yl)carbamate], the EC50 in experiment [1] (setting [7]) and in experiment [2] (setting [8]) was < 5.46 nM throughout.
Consider `CCOc1ccc2c(O[C@@H]3C[C@H]4C(=O)N[C@]5(C(=O)NS(=O)(=O)C6CC6)C[C@H]5/C=C\CC[C@H](C)C[C@@H](C)[C@H](NC(=O)OC(C)(C)C(F)(F)F)C(=O)N4C3)nccc2c1` [Compound 5129, 1,1,1-trifluoro-2-methylpropan-2-yl ((2R,6S,7R,9S,13aS,14aR,16aS,Z)-14a-((cyclopropylsulfonyl)carbamoyl)-2-((6-ethoxyisoquinolin-1-yl)oxy)-7,9-dimethyl-5,16-dioxo-1,2,3,5,6,7,8,9,10,11,13a,14,14a,15,16,16a-hexadecahydrocyclopropa[e]pyrrolo[1,2-a][1,4]diazacyclopentadecin-6-yl)carbamate], for which the EC50 in experiment [1] (setting [5]) was < 5.46 nM; in experiment [2] (setting [6]), 4.82 to 103 nM.
Regarding `COc1ccc2c(O[C@@H]3C[C@H]4C(=O)N[C@]5(C(=O)NS(=O)(=O)C6(C)CC6)C[C@H]5/C=C\CC[C@H](C)C[C@@H](C)[C@H](NC(=O)O[C@@H]5C[C@@H]6C[C@@H]6C5)C(=O)N4C3)nc(-c3ccc(OC(C)C)nc3)cc2c1` [Compound 5228, (1R,3r,5S)-bicyclo[3.1.0]hexan-3-yl ((2R,6S,7R,9S,13aS,14aR,16aS,Z)-2-((3-(6-isopropoxypyridin-3-yl)-6-methoxyisoquinolin-1-yl)oxy)-7,9-dimethyl-14a-(((1-methylcyclopropyl)sulfonyl)carbamoyl)-5,16-dioxo-1,2,3,5,6,7,8,9,10,11,13a,14,14a,15,16,16a-hexadecahydrocyclopropa[e]pyrrolo[1,2-a][1,4]diazacyclopentadecin-6-yl)carbamate], the EC50 is < 5.46 nM in experiment [1] (setting [3]) and 4.82 to 103 nM in experiment [2] (setting [4]).
Consider `CCOc1ccc2c(O[C@@H]3C[C@H]4C(=O)N[C@]5(C(=O)NS(=O)(=O)C6CC6)C[C@H]5/C=C\CC[C@@H](C)C[C@@H](C)[C@H](NC(=O)OC(C)(C)C(F)(F)F)C(=O)N4C3)nccc2c1` [Compound 5130, 1,1,1-trifluoro-2-methylpropan-2-yl ((2R,6S,7R,9R,13aS,14aR,16aS,Z)-14a-((cyclopropylsulfonyl)carbamoyl)-2-((6-ethoxyisoquinolin-1-yl)oxy)-7,9-dimethyl-5,16-dioxo-1,2,3,5,6,7,8,9,10,11,13a,14,14a,15,16,16a-hexadecahydrocyclopropa[e]pyrrolo[1,2-a][1,4]diazacyclopentadecin-6-yl)carbamate], for which the EC50 in experiment [1] (setting [5]) and in experiment [2] (setting [6]) was < 5.46 nM in each case.
`CCOc1ccc2c(O[C@@H]3C[C@H]4C(=O)N[C@]5(C(=O)NS(=O)(=O)C6(C)CC6)C[C@H]5/C=C\CC[C@H](C)C[C@@H](C)[C@H](NC(=O)O[C@@H]5C[C@@H]6C[C@@H]6C5)C(=O)N4C3)nccc2c1` [Compound 5137, (1R,3r,5S)-bicyclo[3.1.0]hexan-3-yl ((2R,6S,7R,9S,13aS,14aR,16aS,Z)-2-((6-ethoxyisoquinolin-1-yl)oxy)-7,9-dimethyl-14a-(((1-methylcyclopropyl)sulfonyl)carbamoyl)-5,16-dioxo-1,2,3,5,6,7,8,9,10,11,13a,14,14a,15,16,16a-hexadecahydrocyclopropa[e]pyrrolo[1,2-a][1,4]diazacyclopentadecin-6-yl)carbamate]: the EC50 in experiment [1] (setting [5]) and in experiment [2] (setting [6]) was < 5.46 nM in each case.

The EC50 is the concentration that produces a half-maximal response.
